Experiments:
[1] = tested on: differentiated SH-SY5Y human neuronal cells; assay: MTT assay: cytotoxicity of the substance alone (primary screen, no added insult); type: cell-based
Procedure: (§1) Cell Culture and Differentiation: The SH-SY5Y human neuronal cell line was derived from neuroblastoma established from a metastatic bone tumor (patient with neuroblastoma). The cells were maintained in DMEM:F12 culture medium supplemented with 10% FBS and 1% Antibiotic-Antimycotic penicillin/streptomycin (growth medium) at 37° C. in a humidified atmosphere of 5% CO2. To induce neuronal differentiation of SH-SY5Y cells, culture media was replaced by a growth medium containing Retinoic Acid (RA) for 4-5 days at 37° C. in a humidified atmosphere of 5% CO2.
(§2) Compounds and Dosing Formulations: Selected cannabinoids: CBD, CBDA, CBC, CBG, CBGA, CBN, CBND and Δ^9-THC were procured from Cayman Chemicals and TRC. Ethanol (100%) was used as the solvent to prepare 1 and 10 mM stock solutions. Treatment concentrations for CBGA were prepared at 0.5 μM, 1.5 μM, 5 μM, 10 μM, 15 μM, 20 μM. Treatment concentrations for CBD, CBDA, CBC, CBN, CBND and Δ^9-THC were prepared at 0.5, 1.5, 5 and for CBG at 0.5 μM, 1.5 μM, 5 μM, 10 μM, 15 μM. Treatments were prepared directly in the control medium (DMEM:F12+5% FBS+1% Antibiotic-Antimycotic) by using appropriate stock solutions.
(§3) Evaluation of Cytotoxicity and Neuroprotection: Evaluation of cannabinoids neuroprotection and cytotoxicity on differentiated SH-SY5Y human neuronal cells was carried out by MTT (3-(4,5-dimethylthiazol-2-yl)-2,5-diphenyltetrazolium bromide) assay. Initially, cannabinoid cytotoxicity and neuroprotection were evaluated in a primary screen assay without the presence of cytotoxicity inducing insult agents. […] The Retinoic Acid (RA) differentiated SH-SY5Y neuronal cells were seeded onto 96-well plates (10,000 cells/well) in DMEM:F12 complete medium. Cells were differentiated for 4-5 days in the presence of RA.
(§4) MTT Assay: For the MTT assay, differentiated SH-SY5Y neuronal cells were treated with cannabinoids at various concentrations for 72 hrs in the presence of STSR at 75 nM, 100 nM, 150 nM and 200 nM or for 24 hrs in the presence of […] at 5 μM, respectively and processed to determine cytotoxicity. Briefly, 5 mg/mL of methylthiazolyldiphenyl-tetrazolium bromide (Sigma-Aldrich) stock solution was prepared in PBS. Following treatment of SH-SY5Y neuronal cells with cannabinoids for 72 hrs, the cells were incubated with 20 μL of MTT stock solution in 200 μL DMEM for 2 hrs at 37° C. Following subsequent washes with PBS, 200 μL of isopropanol was added to each well. The resulting change in color from dissolving formazan salt was immediately quantified using a spectrophotometer (BMG Labtech) at a wavelength of 570 nm. […] The results are illustrated in FIGS. 1-7.

[2] = tested on: differentiated SH-SY5Y human neuronal cells; assay: MTT assay: neuroprotection from Aβ1-42 induced cytotoxicity; type: cell-based; settings: FIG. 7
Procedure: as §1, §2, §3, §4

BCL2 = assay: Western blot of phosphorylated BCL2 (anti-apoptotic marker); type: cell-based, human; settings: CBGA 5 μM and 10 μM on Aβ1-42 (5 μM) treated cells, FIG. 10
Procedure: For Western blot analysis, control and the treated cells were harvested and lysed in cold lysis buffer (150 mM NaCl, 50 mM Tris-HCl, 1% Triton X-100, 0.1% SDS, 0.5% Sodium deoxycholate, and 1% protease-phosphatase inhibitor mixture). The supernatants were collected and protein concentrations were determined using Bio-Rad protein assay (Bio-Rad Laboratories). Whole cell lysates (10 μg) were subjected to 10% SDS-polyacrylamide electrophoresis and transferred to nitrocellulose membrane. The membranes were blocked with 5% skim milk in TBS-T (Tris-buffered saline with 0.05% Tween-20) for 1 h at RT and blotted overnight in the presence of monoclonal anti-mouse MAP2 (1:1000, Sigma, cat. no. M1406), Tau (1:1000, Invitrogen, cat. no. AHB0042), TUJI (1:5000, BioLegend, cat. no. MMS-435P), BAX (1:1000, Cell signaling, cat. no. 2772) and rabbit polyclonal total and phosphorylated BCL (1:1000, Cell signaling, antibodies #2827 and 2870). The membranes were washed and incubated for 1 h in RT with either horseradish peroxidase (HRP)-conjugated goat anti-mouse (1:2000) or goat anti-rabbit antibodies (1:2000) (Jackson Lab). The membranes were washed and developed using chemiluminescence detection kit (Millipore, Billerica, MA, USA) on Alpha Innotech FluorChem 8800. β-Actin or Vinculin was used as a loading control. […]

[3] = tested on: differentiated SH-SY5Y cells; assay: Neurite length / neuritogenesis in differentiated SH-SY5Y cells; type: cell-based, human
Procedure: FIG. 12 provides representative photomicrographs illustrating CBGA mediated changes in neurite elongation and branching in differentiated SH-SY5Y cells in a dose dependent manner. […] FIG. 12 also provides a histogram showing gradual changes in neurite length following treatment with CBGA.
(§5) FIG. 14 Morphological characterization of CBGA, THC and CBN mediated changes in differentiated SH-SY5Y cells. SH-SY5Y cells were differentiated with RA (10 μM) for 5 days as indicated. (A) Representative confocal photomicrographs showing changes in the cellular distribution of Tuj1 in RA induced differentiated SH-SY5Y cells following treatment with CBGA, THC and CBN. (B) Histogram showing the effect of CBGA, CBN, THC on neurite length.

Tuj1 = assay: Western blot of Tuj1 neuritogenesis marker; type: cell-based, human; settings: 5 μM and 10 μM, FIG. 13
Procedure: FIG. 13 CBGA upregulates the expression of Tuj1 neuritogenesis marker. Developmental changes in prominent intracellular marker of neurite growth, neuron-specific III β-tubulin (Tuj1) was determined using Western blot analysis. CBGA increased the expression of Tuj1 in differentiated SH-SY5Y cells. FIG. 13 also provides a histogram showing densitometric analysis of relative expression of Tuj1. β-Actin was used as a loading control. P<0.05 for CBGA 10 μM vs Control by One-Way ANOVA.
For Western blot analysis, control and the treated cells were harvested and lysed in cold lysis buffer (150 mM NaCl, 50 mM Tris-HCl, 1% Triton X-100, 0.1% SDS, 0.5% Sodium deoxycholate, and 1% protease-phosphatase inhibitor mixture). The supernatants were collected and protein concentrations were determined using Bio-Rad protein assay (Bio-Rad Laboratories). Whole cell lysates (10 μg) were subjected to 10% SDS-polyacrylamide electrophoresis and transferred to nitrocellulose membrane. […]

[4] = tested on: differentiated SH-SY5Y cells; assay: Immunocytochemistry of TuJ1 and neuronal morphology; type: cell-based, human; settings: 5 μM and 10 μM, FIG. 14
Procedure: as §5

[5] = tested on: differentiated SH-SY5Y cells; assay: Confocal immunofluorescence of MAP2 and neurite morphology; type: cell-based, human; settings: FIG. 16
Procedure: SH-SY5Y cells were differentiated with RA (10 μM) for 5 days as indicated.
Accordingly, the effect of CBGA on the expression of MAP-2 was tested.

**Q.** Which results are given for `CCCCCc1cc(O)c(C/C=C(\C)CCC=C(C)C)c(O)c1C(=O)O` [CBGA, 3-[(2E)-3,7-dimethylocta-2,6-dienyl]-2,4-dihydroxy-6-pentylbenzoic acid]?
**A.** effect on survival in primary screen ([1]; 1.5 μM, 5 μM and 15 μM, FIG. 1): pro-survival neuroprotective effect; Cell Death (%) vs Vehicle Control ([1]; 15 μM, pre-screen, FIG. 1): pro-survival; cell death under basal conditions ([1]; CBGA alone up to 20 μM, FIG. 4): did not result in cell death; cell proliferation under basal conditions ([1]; CBGA alone up to 20 μM, FIG. 4): induced dose-dependent cell proliferation; protection from Aβ1-42 induced insult ([2]; 0.15 μM, 0.5 μM, 1.5 μM, 5 μM, 10 μM and 15 μM with Aβ1-42 5 μM, dose-dependent): protected cells; effect with Aβ1-42 at the highest concentration ([2]; 20 μM with Aβ1-42 5 μM): resulted in cell death; BCL2 expression (BCL2): abrogates the downregulation of BCL2; neurite length ([3]; 24 hours post treatment, FIG. 14 (B)): increased neurite length significantly; neuritogenesis (neurite length) ([3]; dose dependent, FIG. 12): significantly increased the neuritogenesis; TuJ1 expression, Western blot (Tuj1): promotes upregulation of TuJ1 expression; TuJ1 expression, immunocytochemistry [4]: promotes upregulation of TuJ1 expression; MAP-2 expression, corrected total cell fluorescence ([5]; CBGA 10 μM on otherwise untreated cells): promoted upregulation of MAP-2; neurite morphology ([5]; CBGA alone): elongated neurites and enhanced arborization; MAP2 expression ([5]; CBGA treatment of Aβ1-42 exposed cells): restores MAP2 expression

— patent publication US20230381205A1, “COMPOSITIONS AND METHODS FOR TREATING NEURONAL DISORDERS WITH CANNABINOIDS” (INMED PHARMACEUTICALS INC., priority 2020, published 2023)
